In assay [1] the target is T1, mMC3R (Mus musculus, UniProt P33033). Briefly: cAMP-based β-galactosidase reporter agonist assay in HEK293 cells, mMC3R. As to conditions: for mMC3R fold difference: EC50 of substituted peptide divided by EC50 of NDP-MSH, potency loss.
For assay [2], the target named is T2, mMC1R (Mus musculus, UniProt Q01727). Briefly: cAMP-based β-galactosidase reporter agonist assay in HEK293 cells, mMC1R. As to conditions: potency loss.
For assay [3], the target named is T3, mMC4R (Mus musculus, UniProt P56450). Briefly: cAMP-based β-galactosidase reporter agonist assay in HEK293 cells, mMC4R. Particulars: for mMC4R fold difference: potency loss.
T3 sequence (P56450 whole entry): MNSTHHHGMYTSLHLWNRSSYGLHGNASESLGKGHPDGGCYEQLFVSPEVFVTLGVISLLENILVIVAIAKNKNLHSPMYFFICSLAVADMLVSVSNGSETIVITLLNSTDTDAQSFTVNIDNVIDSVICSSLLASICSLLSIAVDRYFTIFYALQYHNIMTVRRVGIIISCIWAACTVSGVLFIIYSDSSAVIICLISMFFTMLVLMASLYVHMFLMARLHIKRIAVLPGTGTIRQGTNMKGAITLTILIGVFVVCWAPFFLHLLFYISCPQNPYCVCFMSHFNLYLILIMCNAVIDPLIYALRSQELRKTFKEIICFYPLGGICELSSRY
Assay [4] has as its system hMC4R. Particulars: cited from earlier work.
For assay [5], the target named is T4, mMC5R (Mus musculus, UniProt P41149). The experiment in a line: cAMP-based β-galactosidase reporter agonist assay in HEK293 cells, mMC5R. As to conditions: for mMC5R fold difference: potency loss.
T4 sequence (P41149 whole entry): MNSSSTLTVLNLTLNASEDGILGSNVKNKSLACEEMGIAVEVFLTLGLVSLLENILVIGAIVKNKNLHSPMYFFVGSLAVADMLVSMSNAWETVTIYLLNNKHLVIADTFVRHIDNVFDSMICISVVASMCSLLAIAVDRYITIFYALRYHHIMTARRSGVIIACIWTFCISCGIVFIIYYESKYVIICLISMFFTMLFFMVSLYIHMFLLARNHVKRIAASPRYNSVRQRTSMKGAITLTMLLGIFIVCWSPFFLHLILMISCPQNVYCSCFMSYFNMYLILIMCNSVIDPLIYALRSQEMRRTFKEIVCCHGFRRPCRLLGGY
In another assay the test system is hMC3R. Particulars: COS cell-line expressing human melanocortin receptors; cited from earlier work.
Assay [6] concerns hMC4R. Particulars: cited from earlier work. This is another data set of the same source.
Assay [7] concerns hMC1R. Particulars: COS cell-line expressing human melanocortin receptors; cited from earlier work.
The target of assay [8] is T2, mMC1R. Particulars: B16 murine melanoma cells; relative to α-MSH; cited from earlier work.
The subject of the next assay is rMC3R. As to conditions: HEK293 cells expressing the rMC3R; relative to α-MSH; cited from earlier work.
Assay [9] addresses T2, mMC1R. As to conditions: B16 murine melanoma cells; relative to α-MSH; cited from earlier work. The source holds these as a separate data set.
Assay [10] relates to hMC1R. Particulars: cited from earlier work.
Assay [11] deals with T4, mMC5R. As to conditions: cloned mouse receptors; cited from earlier work.
In assay [12] the target is T2, mMC1R. As to conditions: cloned mouse receptors; cited from earlier work.
Assay [13] deals with T3, mMC4R. As to conditions: cloned mouse receptors; cited from earlier work.
Assay [14] addresses T1, mMC3R. Particulars: cloned mouse receptors; cited from earlier work.
[15] abbreviates: EC50 of substituted peptide divided by EC50 of NDP-MSH.
[16] abbreviates: EC50 of substituted peptide divided by EC50 of α-MSH.

Consider nine compounds from paper PMC5596636 (ACS chemical neuroscience, 2016).

“Also recorded” adds a separate entry of the source. Bounds are passed on as bounds.

T2 sequence (Q01727 whole entry): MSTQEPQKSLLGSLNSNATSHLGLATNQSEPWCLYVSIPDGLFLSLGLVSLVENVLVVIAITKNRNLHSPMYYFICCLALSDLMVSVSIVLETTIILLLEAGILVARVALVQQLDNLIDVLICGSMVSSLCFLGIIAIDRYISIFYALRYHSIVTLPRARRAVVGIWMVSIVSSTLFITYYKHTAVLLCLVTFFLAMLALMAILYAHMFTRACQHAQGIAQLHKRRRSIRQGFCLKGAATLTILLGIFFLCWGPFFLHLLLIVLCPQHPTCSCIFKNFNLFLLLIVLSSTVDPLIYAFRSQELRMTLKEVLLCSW
T1 sequence (P33033 whole entry): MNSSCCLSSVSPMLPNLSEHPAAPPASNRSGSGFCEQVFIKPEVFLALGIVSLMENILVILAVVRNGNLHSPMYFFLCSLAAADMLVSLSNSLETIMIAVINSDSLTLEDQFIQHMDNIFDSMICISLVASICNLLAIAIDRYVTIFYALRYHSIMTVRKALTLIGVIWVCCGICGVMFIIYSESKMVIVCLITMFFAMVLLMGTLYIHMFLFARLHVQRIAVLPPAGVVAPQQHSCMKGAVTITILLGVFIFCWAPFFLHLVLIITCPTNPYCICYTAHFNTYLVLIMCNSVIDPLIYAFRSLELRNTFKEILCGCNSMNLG

One may read the EC50 as the midpoint of the concentration-response curve. Higher therefore signals a need for much substance. Turning to `CCCC[C@H](NC(=O)[C@H](CO)NC(=O)[C@H](Cc1ccc(O)cc1)NC(=O)[C@H](CO)NC(C)=O)C(=O)N[C@@H](C)C(=O)N[C@@H](Cc1c[nH]cn1)C(=O)N[C@H](Cc1ccccc1)C(=O)N[C@@H](CCCNC(=N)N)C(=O)N[C@@H](Cc1c[nH]c2ccccc12)C(=O)NCC(=O)N[C@@H](CCCCN)C(=O)N1CCC[C@H]1C(=O)N[C@H](C(N)=O)C(C)C` [[Ala^5]NDP-MSH, Ac-Ser-Tyr-Ser-Nle-Ala-His-DPhe-Arg-Trp-Gly-Lys-Pro-Val-NH2], at mMC3R [1], the EC50 came out at 1.18 ± 0.4 nM and the mMC3R fold difference is 5 fold. For the same compound, on mMC1R [2] (setting [15]), the mMC1R fold difference result is listed as “no change”. Also, the mMC4R fold difference at mMC4R [3] (setting [15]) was determined as 4 fold. Further, the “fold decreased agonist potency at the hMC4R relative to NDP-MSH” value in the assay with hMC4R [4] is 4 fold. Further, the mMC5R fold difference entry at mMC5R [5] (setting [15]) is given as “no change”.

Regarding `CCCC[C@H](NC(=O)[C@H](CO)NC(=O)[C@H](Cc1ccc(O)cc1)NC(=O)[C@H](CO)NC(C)=O)C(=O)N[C@@H](CCC(=O)O)C(=O)N[C@@H](C)C(=O)N[C@H](Cc1ccccc1)C(=O)N[C@@H](CCCNC(=N)N)C(=O)N[C@@H](Cc1c[nH]c2ccccc12)C(=O)NCC(=O)N[C@@H](CCCCN)C(=O)N1CCC[C@H]1C(=O)N[C@H](C(N)=O)C(C)C` [[Ala^6]NDP-MSH, Ac-Ser-Tyr-Ser-Nle-Glu-Ala-DPhe-Arg-Trp-Gly-Lys-Pro-Val-NH2], at mMC3R [1], the EC50 is 0.55 ± 0.12 nM and the mMC3R fold difference result is “did not alter agonist potency; also recorded: equipotency”. For the same compound, the “fold decreased binding affinity at the hMC3R” value with hMC3R was 6 fold. Further, at mMC1R [2] (setting [15]), the mMC1R fold difference entry is reported as “did not alter agonist potency”. Besides, the mMC4R fold difference result at mMC4R [3] (setting [15]) is reported as “did not alter agonist potency”. In the assay with hMC4R [6], the “efficacy relative to NDP-MSH at the hMC4R” value is 40% and the “fold agonist potency loss at the hMC4R relative to NDP-MSH” value is given as “equipotent”. For the same compound, in the assay on hMC4R [4], the “fold decreased agonist potency at the hMC4R relative to NDP-MSH” value is on record as 4 fold. The “fold decreased binding affinity at the hMC1R” value in the assay with hMC1R [7] is listed as 8 fold. Also, at mMC5R [5] (setting [15]), the mMC5R fold difference result is “did not alter agonist potency”.

Compound `CSCC[C@H](NC(=O)[C@H](CO)NC(=O)[C@H](Cc1ccc(O)cc1)NC(=O)[C@H](CO)NC(C)=O)C(=O)N[C@@H](CCC(=O)O)C(=O)N[C@@H](C)C(=O)N[C@@H](Cc1ccccc1)C(=O)N[C@@H](CCCNC(=N)N)C(=O)N[C@@H](Cc1c[nH]c2ccccc12)C(=O)NCC(=O)N[C@@H](CCCCN)C(=O)N1CCC[C@H]1C(=O)N[C@H](C(N)=O)C(C)C` [[Ala^6]α-MSH] returned an EC50 on mMC3R [1] of 4270 ± 1960 nM. For the same compound, on mMC1R [8], the “fold decreased tyrosinase potency at the mMC1R” value is reported as 6 fold. Further, in the assay with rMC3R, the “fold decreased binding affinity at the rMC3R” value was 6 fold. Moreover, the mMC1R fold difference on mMC1R [2] (setting [16]) is recorded as 35 fold. Moreover, the mMC4R fold difference on mMC4R [3] (setting [16]) is 110 fold. Further, the “fold decreased binding affinity at the mMC1R” value at mMC1R [9] is 83 fold. At mMC5R [5] (setting [16]), this compound had a mMC5R fold difference of 45 fold.

The compound `CSCC[C@H](NC(=O)[C@H](CO)NC(=O)[C@H](Cc1ccc(O)cc1)NC(=O)[C@H](CO)NC(C)=O)C(=O)N[C@@H](CCC(=O)O)C(=O)N[C@@H](Cc1c[nH]cn1)C(=O)N[C@@H](C)C(=O)N[C@@H](CCCNC(=N)N)C(=O)N[C@@H](Cc1c[nH]c2ccccc12)C(=O)NCC(=O)N[C@@H](CCCCN)C(=O)N1CCC[C@H]1C(=O)N[C@H](C(N)=O)C(C)C` [[Ala^7]α-MSH] registered an EC50 on mMC3R [1] of 1660 ± 825 nM. Besides, the “fold decreased tyrosinase potency at the mMC1R” value on mMC1R [8] is listed as 260 fold. Besides, the “fold decreased binding affinity at the rMC3R” value with rMC3R is on record as 91 fold. The compound also gave a mMC1R fold difference on mMC1R [2] (setting [16]) of 200 fold. The mMC4R fold difference on mMC4R [3] (setting [16]) is recorded as 190 fold. On mMC1R [9], the “fold decreased binding affinity at the mMC1R” value was 500 fold. For the same compound, on mMC5R [5] (setting [16]), the mMC5R fold difference was found to be 210 fold.

On mMC3R [1], `CCCC[C@H](NC(=O)[C@H](CO)NC(=O)[C@H](Cc1ccc(O)cc1)NC(=O)[C@H](CO)NC(C)=O)C(=O)N[C@@H](CCC(=O)O)C(=O)N[C@@H](Cc1c[nH]cn1)C(=O)N[C@H](Cc1ccccc1)C(=O)N[C@@H](C)C(=O)N[C@@H](Cc1c[nH]c2ccccc12)C(=O)NCC(=O)N[C@@H](CCCCN)C(=O)N1CCC[C@H]1C(=O)N[C@H](C(N)=O)C(C)C` [[Ala^8]NDP-MSH, Ac-Ser-Tyr-Ser-Nle-Glu-His-DPhe-Ala-Trp-Gly-Lys-Pro-Val-NH2] displayed a concentration giving a half-maximal response (EC50) of 2.07 ± 0.42 nM. At mMC1R [2] (setting [15]), this compound displayed a mMC1R fold difference of 6 fold. This compound also came in with a mMC4R fold difference on mMC4R [3] (setting [15]) of 29 fold. Further, the “fold agonist potency loss at the hMC4R relative to NDP-MSH” value with hMC4R [6] was 32 fold. The mMC5R fold difference entry at mMC5R [5] (setting [15]) is recorded as “did not affect the agonist potency”.

As for `CSCC[C@H](NC(=O)[C@H](CO)NC(=O)[C@H](Cc1ccc(O)cc1)NC(=O)[C@H](CO)NC(C)=O)C(=O)N[C@@H](CCC(=O)O)C(=O)N[C@@H](Cc1c[nH]cn1)C(=O)N[C@@H](Cc1ccccc1)C(=O)N[C@@H](C)C(=O)N[C@@H](Cc1c[nH]c2ccccc12)C(=O)NCC(=O)N[C@@H](CCCCN)C(=O)N1CCC[C@H]1C(=O)N[C@H](C(N)=O)C(C)C` [[Ala^8]α-MSH], the response on mMC3R [1] was half-maximal at 670 ± 215 nM (EC50). Moreover, the “fold decreased tyrosinase potency at the mMC1R” value on mMC1R [8] is 100 fold. Moreover, in the assay on rMC3R, the “fold decreased binding affinity at the rMC3R” value is on record as 200 fold. Besides, the mMC1R fold difference at mMC1R [2] (setting [16]) was 200 fold. In addition, the mMC4R fold difference on mMC4R [3] (setting [16]) is recorded as 470 fold. Besides, at mMC1R [9], the “fold decreased binding affinity at the mMC1R” value is 2080 fold. At mMC5R [5] (setting [16]), the mMC5R fold difference came to 5 fold. Also, the “selectivity for the mMC5R over the mMC4R” value on mMC5R [5] (from agonist EC50 values) is given as 120 fold.

Regarding `CCCC[C@H](NC(=O)[C@H](CO)NC(=O)[C@H](Cc1ccc(O)cc1)NC(=O)[C@H](CO)NC(C)=O)C(=O)N[C@@H](CCC(=O)O)C(=O)N[C@@H](Cc1c[nH]cn1)C(=O)N[C@H](Cc1ccccc1)C(=O)N[C@@H](CCCNC(=N)N)C(=O)N[C@@H](C)C(=O)NCC(=O)N[C@@H](CCCCN)C(=O)N1CCC[C@H]1C(=O)N[C@H](C(N)=O)C(C)C` [[Ala^9]NDP-MSH, Ac-Ser-Tyr-Ser-Nle-Glu-His-DPhe-Arg-Ala-Gly-Lys-Pro-Val-NH2], at mMC3R [1], the EC50 was determined as 295 ± 92 nM and the mMC3R fold difference is given as 1230 fold. Also, on mMC1R [2] (setting [15]), the mMC1R fold difference turned out to be 180 fold. Further, at mMC4R [3] (setting [15]), the mMC4R fold difference was 2120 fold. The “activation of the hMC4R” value in the assay with hMC4R [6] (at concentrations up to 100 μM) is given as “not to activate”. In addition, in the assay with hMC1R [10], the “agonist efficacy at the hMC1R” value is “full agonist” and the “fold less potent than NDP-MSH at the hMC1R” value is listed as 3 fold. Moreover, the mMC5R fold difference on mMC5R [5] (setting [15]) is given as 220 fold.

On to `CSCC[C@H](NC(=O)[C@H](CO)NC(=O)[C@H](Cc1ccc(O)cc1)NC(=O)[C@H](CO)NC(C)=O)C(=O)N[C@@H](CCC(=O)O)C(=O)N[C@@H](Cc1c[nH]cn1)C(=O)N[C@@H](Cc1ccccc1)C(=O)N[C@@H](CCCNC(=N)N)C(=O)N[C@@H](C)C(=O)NCC(=O)N[C@@H](CCCCN)C(=O)N1CCC[C@H]1C(=O)N[C@H](C(N)=O)C(C)C` [[Ala^9]α-MSH], for which the EC50 at mMC3R [1] was 15700 ± 4870 nM; at mMC4R [3] (mMC4R EC50, bound, Table 2, EC50 higher than 20 μM), more than 20000 nM; on mMC5R [5] (mMC5R EC50, bound, Table 2, EC50 higher than 20 μM), more than 20000 nM. Also, the “fold decreased tyrosinase potency at the mMC1R” value at mMC1R [8] was 120 fold. The “fold decreased binding affinity at the rMC3R” value in the assay on rMC3R is listed as 83 fold. On mMC1R [2] (setting [16]), the mMC1R fold difference is 570 fold. At mMC4R [3] (setting [16]), the mMC4R fold difference was found to be 1500 fold. The “fold decreased binding affinity at the mMC1R” value on mMC1R [9] was 2000 fold. The mMC5R fold difference on mMC5R [5] (setting [16]) was found to be 1370 fold.

For Ac-His-Phe-Arg-Trp-NH2, the “agonist potency at the mMC5R” value with mMC5R [11] is listed as “sub-micromolar potency”. The “agonist potency at the mMC1R” value with mMC1R [12] was “micromolar potency”. Moreover, the “agonist potency at the mMC4R” value with mMC4R [13] is “micromolar potency”. Besides, the “agonist potency at the mMC3R” value with mMC3R [14] is given as “micromolar potency”.
